Measurements published in patent publication US5420115A, “Method for the treatment of protoza infections with 2^1 -deoxy-2^1 -fluoropurine nucleosides” (priority 1992, dated 1995).
Read-outs that look alike come from different tables or passages of the source.

How the values were obtained:
[1] = tested on: Influenza A and B; experiment: microbe, parasite or virus in culture; assay type: cell-based, chick embryo cells; settings: read-out: Anti-influenza Activity CE cells IC50
[2] = tested on: Influenza A and B; assay type: in vivo, mouse; settings: given as +(n), route and dose not specified
[3] = primary chick embryo (CE) cells, influenza strain not given

SMILES: Nc1nc(N)c2ncn([C@@H]3O[C@H](CO)[C@@H](O)[C@H]3F)c2n1 [Example 6, 2,6-Diamino-9-(2-deoxy-2-fluoro-β-D-ribofuranosyl)-9H-purine]
- IC50 ([1]; in Gallus gallus): 600 nM
- Mouse log10 reduction in virus titre (Average of 5 Mice) [2]: 2.1 log10

SMILES: Nc1nc2c(ncn2[C@@H]2O[C@H](CO)[C@@H](O)[C@H]2F)c(=O)[nH]1 [Example 7, 9-(2-Deoxy-2-fluoro-β-D-ribofuranosyl)guanine]
- IC50 [1, 3]: 800 to 2000 nM
- Mouse log10 reduction in virus titre (Average of 5 Mice) [2]: 2.4 log10

SMILES: Nc1ncnc2c1ncn2[C@@H]1O[C@H](CO)[C@@H](O)[C@H]1F [Example 8, 9-(2-Deoxy-2-fluoro-β-D-ribofuranosyl)adenine]
- IC50 [1, 3]: 4000 nM
- Mouse log10 reduction in virus titre (Average of 5 Mice) [2]: 2.3 log10

SMILES: Nc1ncc2ncn([C@@H]3O[C@H](CO)[C@@H](O)[C@H]3F)c2n1 [Example 9, 2-Amino-9-(2-deoxy-2-fluoro-β-D-ribofuranosyl)-9H-purine]
- Mouse log10 reduction in virus titre (Average of 5 Mice) [2]: 1.6 log10

SMILES: COc1nc(N)nc2c1ncn2[C@@H]1O[C@H](CO)[C@@H](O)[C@H]1F [Example 12, 2-Amino-9-(2-deoxy-2-fluoro-β-D-ribofuranosyl)-6-methoxy-9H-purine]
- IC50 [1, 3]: 400 nM
- Mouse log10 reduction in virus titre (Average of 5 Mice) [2]: 1.9 log10
